Measured values as given in US20250302712A1, “COMPOSITION FOR SKIN MOISTURIZING COMPRISING PHENYLLACTIC ACID” (AMOREPACIFIC CORPORATION, priority 2024, published 2025).

System: HAS2 (Hyaluronan synthase 2)
Experiment: HAS2 gene expression in blue light irradiated human keratinocytes (HaCaT), Taqman real-time PCR
Type: cell-based
Settings: blue light 410 nm 120 J/cm^2, PLA 50 μM (8.3 ppm)
Procedure: The Lactobacillus plantarum APsulloc 331261 (KCCM11179P) strain used in Experimental Example above was inoculated into a medium containing MRS broth, phenylalanine at a concentration of 40 mM, and calcium carbonate at a concentration of 1%, and the culture medium was cultured for 3 days. The cells were removed by centrifugation, and 1 liter was prepared. An equal amount of ethyl acetate was added to the prepared culture medium and the reaction was performed, and the water layer and the ethyl acetate layer of the culture medium were waited for separation. The separated ethyl acetate layer was heated and distilled, and an appropriate amount of water (about 100 mL) was added to the remaining concentrate to prepare a Lactobacillus culture extract containing phenyllactic acid. […]
In addition, the hyaluronic acid production promotion effect of the culture medium of Lactobacillus strains prepared as shown in Table 1 was compared. The strains Lactobacillus plantarum APsulloc 331261 (KCCM11179P), Lactobacillus plantarum KCTC3108, Lactobacillus acidophilus KCTC3164, and Lactobacillus sakei KTCT3603 were inoculated into MRS broth, and 0.5% of the culture medium static-cultured at 35° C. for 3 days was added, and the gene expression amount of HAS2 (Hyaluronan synthase 2) was measured in the same manner as above.

SMILES: O=C(O)C(O)Cc1ccccc1 (stereo not shown) [PLA, Phenyllactic acid]
- HAS2 gene expression: significantly improved the decrease in HAS2 gene expression caused by blue light
